# Where a name gives a salt, the structure may show the parent alone.
# Experiments:
# [1] = as reported in Japanese Patent Public Disclosure No. 25323/84; cited from earlier work
# [2] = rat, in vivo, po
# [3] = test system: thoracic aorta tissue sections; experiment: Superoxide anion (O2−) production level in thoracic aorta tissue sections, lucigenin-enhanced chemiluminescence; assay type: in vivo, Sprague-Dawley rats; details: for O2− production level, Average: 10 mg BH4 dihydrochloride/kg/day oral, 8 weeks
# Description: (§1) Male Sprague-Dawley rats (150 g, supplied from Charles River) were used to prepare a model group with insulin resistance induced by fructose feed loading (hereinafter referred to as “FR group”) according to the procedure described by Hwang et al. (Hwang, I-H. et al., Hypertension 10:512, 1987). A control group grown with a starch feed (hereinafter referred to as “CTR group”) was also prepared (FR group: n=16; CTR group: n=16). FR group received a feed containing 67% (hereinafter meaning % by weight) carbohydrate (containing 98% fructose available from Oriental Yeast Co., Ltd.), 13% fat and 20% protein, while CTR group received a feed containing 58% carbohydrate, 12% fat and […]. […] After 8 weeks, the thoracic aorta was collected. For each group, endothelium-separated sections (EC (−)) and non-separated sections (EC (+)) were prepared and examined for superoxide anion (O2^−) production level, endothelial NOS (eNOS) activity and endothelium-dependent vasorelaxation.
# (§2) Group-to-group statistic analyses were made by one-way ANOVA, with the significance level being p<0.05. Multiple comparison was made by Bonferronl/Dunn, with the significance level being p<0.05.
# Measurement of O2^− production level was made by the lucigenin-enhanced chemiluminescence method (Ohara et al., J. Clin. Invest. 91: 2546, 1993).
# [4] = molecular target: T1, endothelial NOS (eNOS) (Rattus norvegicus, UniProt Q62600); experiment: Endothelial NOS activity in thoracic aorta sections; assay type: in vivo, Sprague-Dawley rats; details: for eNOS activity, Average: 10 mg/kg/day oral, 8 weeks
# T1 construct: After 8 weeks, the thoracic aorta was collected; from tissue; host or cells: thoracic aorta sections with endothelium (EC (+)) of Sprague-Dawley rats
# Description: as §1, §2
# Measurement of eNOS activity was made according to Rees, D. et al., Hypertension 28: 367, 1996.
# [5] = test system: thoracic aorta sections; experiment: Endothelium-dependent vasorelaxation induced by acetylcholine, isometric tensiometry; assay type: in vivo, Sprague-Dawley rats; details: for Endothelium-dependent vasorelaxation induced by acetylcholine, Average / Endothelium-dependent vasorelaxation induced by acetylcholine, Average (TABLE 3): 10 mg/kg/day oral, 8 weeks; for Endothelium-dependent vasorelaxation induced by acetylcholine, Average: acetylcholine 10^−5 M, vs 10^−4 M papaverine; for Endothelium-dependent vasorelaxation induced by acetylcholine, Average (TABLE 3): repeat print of Table 3
# Description: as §1, §2
# Measurement of endothelium-dependent vasorelaxation was made by the isometric tensiometry (Toda, N. et al., Stroke 24: 1584, 1993) using ink-writing oscillographs (Nippon Kohden Corporation) and a force-displacement transducer (Nippon Kohden Corporation). Data were shown as % maximum relaxation vs. the maximum relaxation induced by 10^−4 M papaverine after aortic sections were partially precontracted with 1-3×10^−7 M 1-phenylephrine. Endothelium-dependent vasorelaxation induced by acetylcholine (10^−5M) and calcium ionophore (A23187, Sigma) (3×10^−7 M) in EC (+) of each of the 4 groups are shown in Tables 3 and 4, respectively.
# [6] = test system: thoracic aorta sections; experiment: Endothelium-dependent vasorelaxation induced by calcium ionophore (A23187), isometric tensiometry; assay type: in vivo, Sprague-Dawley rats; details: FR group, EC (+), A23187 3×10^−7 M
# Description: as §1
# Group-to-group statistic analyses were made by one-way ANOVA, with the significance level being p<0.05. Multiple comparison was made by Bonferronl/Dunn, with the significance level being p<0.05. […]
# [7] = CTR + BH4 group (starch feed), EC (+)
# [8] = FR + BH4 group (fructose-fed, insulin resistant), EC (+)
smiles,measurement,setting,value
"C[C@H](O)[C@H](O)C1CNc2nc(N)[nH]c(=O)c2N1 (stereo partly drawn) [(6R,S)-5,6,7,8-tetrahydrobiopterin]",toxicity (in words),[1],only slightly toxic
"CC(O)C(O)C1CNc2nc(N)[nH]c(=O)c2N1 [BH4 dihydrochloride, (6R)-L-erythro-5,6,7,8-tetrahydrobiopterin]",acute toxicity,[2],≥ 2 g/kg (body weight)
"CC(O)C(O)C1CNc2nc(N)[nH]c(=O)c2N1 [BH4, (6R)-L-erythro-5,6,7,8-tetrahydrobiopterin]","O2− production level, Average",[3]; [7],189.3 100 cpm/mg dry weight
same,change of O2− production level by BH4 administration (in words),[3]; CTR group,any significant change was not observed
same,"O2− production level, difference among the 4 groups (in words)",[3]; EC (−) endothelium-separated sections,No significant difference
same,"O2− production level, Average",[3]; [8],118.0 100 cpm/mg dry weight
same,change of O2− production level by BH4 administration (in words),"[3]; FR group, EC (+)",significantly (p<0.001) decreased
same,"eNOS activity, Average",[4]; [7],57.0 pmol/min/mg protein
same,change of eNOS activity by BH4 administration (in words),[4]; CTR group,any significant change was not observed
same,"eNOS activity, Average",[4]; [8],60.2 pmol/min/mg protein
same,change of eNOS activity by BH4 administration (in words),"[4]; FR group, EC (+)",significantly (p<0.001) improved
same,"Endothelium-dependent vasorelaxation induced by acetylcholine, Average","[5]; CTR + BH4 group, EC (+)",92.9 % maximum relaxation
same,"Endothelium-dependent vasorelaxation induced by acetylcholine, Average (TABLE 3)","[5]; CTR + BH4 group, EC (+)",92.9 % maximum relaxation
same,change of endothelium-dependent vasorelaxation by BH4 administration (in words),[5]; CTR group,any significant change was not observed
same,"Endothelium-dependent vasorelaxation induced by acetylcholine, Average","[5]; FR + BH4 group, EC (+)",82.6 % maximum relaxation
same,"Endothelium-dependent vasorelaxation induced by acetylcholine, Average (TABLE 3)","[5]; FR + BH4 group, EC (+)",82.6 % maximum relaxation
same,change of acetylcholine-induced endothelium-dependent vasorelaxation by BH4 administration (in words),"[5]; FR group, EC (+)",significantly (p<0.001) recovered
same,change of calcium ionophore-induced endothelium-dependent vasorelaxation by BH4 administration (in words),[6],significantly (p<0.001) recovered
